Measurements: patent US4912092A, “Methods for increasing extracellular adenosine and for stabilizing mast cells” (The Regents of the University of California, priority 1987, dated 1990)
Several values for one entry are separate records, joined by “and”; a condition that tells them apart may be missing. Equal entries are not always repeated.

What was measured:
[1] = test system: human splenic lymphoblast cell line (WI-L2); experiment: Adenosine excretion by human lymphoblasts during ATP breakdown (2-deoxyglucose); type: cell-based
Description: (§1) The history and properties of the cell line have been described by Hershfield et al. in Science, Vol. 197, p. 1284, 1977.
(§2) Catabolism of cellular ATP stores was stimulated by adding either 2-deoxyglucose or a calcium ionophore. At various times, the amount of adenosine released by the cells into the supernatant, or the amount of nucleotides remaining in the cells, was determined by mixing 30 μl of chilled 4.4N perchloric acid with 300 μl of supernatants, or by adding 300 μl of chilled 0.4N perchloric acid to the cells collected as pellets and centrifuging the mixtures at 500×G for 10 minutes at 4° C. […] 1245, 1975. Following centrifugation at 1500×G for three minutes at 4° C., the aqueous phase is removed and frozen at -20° C. until assayed for adenosine, inosine, or for nucleotides. Adenosine was evaluated isocratically on a C-18 microBondapak reverse phase column equilibrated with 4 millimolar potassium phosphate, (pH 3.4):acetonitrile 60% in water (95:5 v/v) buffer. Adenosine elutes at 8-10 minutes, and its identity was confirmed by its sensitivity to adenosine deaminase and by spiking with adenosine standards. The extracted samples from the cell pellet were analyzed for nucleotides by high pressure liquid chromatography on a Whatman Partisil-10 (SAX) column equilibrated with 10 millimolar potassium phosphate, pH 3.78, and eluted with a linear gradient to a 0.25 molar potassium phosphate, 0.5 molar KCl, pH 3.45. […] Peaks were quantitated by comparison with high pressure liquid chromatography analysis of suitable standards.
Cells were grown to about 0.5×10^6 cells/ml (mid-log phase) in FIG. 2 and to about 1.0×10^6 cells/ml (early stationary phase) in FIGS. 7-9.

[2] = test system: HPRT+ neuroblastoma cells; experiment: Adenosine excretion by ionophore-stimulated HPRT+ neuroblastoma cells; type: cell-based; conditions: for Concentration of Adenosine: HPRT+, AICA riboside 50 μM
Description: as §1, §2
(§3) To induce ATP catabolism, the growth medium was replaced by medium containing micromolar amounts of the calcium ionophore A23187 and 1.0 μM deoxycoformycin.

[3] = test system: HPRT- neuroblastoma cells; experiment: Adenosine excretion by ionophore-stimulated HPRT- neuroblastoma cells; type: cell-based; conditions: for Concentration of Adenosine: HPRT-, AICA riboside 50 μM
Description: as §1, §2, §3

[4] = dog, in vivo, iv
Excerpt: Thirteen mongrel dogs were anesthetized with phenobarbital. […] C.V. Dis. 20; 55 (1977).

ischemic myocardium = experiment: Regional myocardial blood flow during coronary artery occlusion (radiolabelled microspheres); type: in vivo, dog
Excerpt: FIG. 4. […] The means plus the standard deviations are graphed. […] Thirteen mongrel dogs were anesthetized with phenobarbital. […] C.V. Dis. 20; 55 (1977).

myocardial infarct = experiment: Myocardial infarct size after tying off the left anterior descending coronary artery; type: in vivo, rat; conditions: bolus then osmotic mini-pump infusion, three weeks; p<0.05
Excerpt: The animals were continuously exposed by infusion of either AICA riboside in saline or saline using osmotic mini-pumps well known to those in the art. After three weeks, the rats were sacrificed and infarct size quantitated by planimarizing stained sections of fixed hearts.

arrhythmias = experiment: Arrhythmias (PVD, VTAC) during ischemia in dogs; type: in vivo, dog
Description: Thirteen mongrel dogs were anesthetized with phenobarbital. […] C.V. Dis. 20; 55 (1977). […] Two of the surviving saline-treated animals fibrillated. […] The range was 4.4 to 100 μM.
One consequence of myocardial ischemia is arrhythmia and the frequency of arrhythmias is related to the degree of reduced blood flow. […] Electrocardiograms recorded during ischemia of Example III were analyzed for the number of premature ventricular depolarizations (PVD) and ventricular tachycardia (VTAC) episodes.

[5] = Plasma, CSF, erythrocyte and urine measurements in the patient trial; type: in vivo, human
Excerpt: Following authorization, therapeutic trials with AICA riboside were started in two patients with adenylosuccinase deficiency (autism). […] On Day 55, both patients were briefly readmitted for clinical, biochemical and psychiatric evaluation. […] Treatment was maintained until Day 71, and arrested at that date.
A correct assessment of the renal loss of the nucleoside could not be obtained.

[6] = test system: Mouse bone marrow-derived mast cells; experiment: Mast cell leukotriene C4 release (radioimmune assay); type: cell-based
Description: By preventing mast cell degranulation, it is possible to prevent or control a patient's allergic response. Bone marrow obtained from Balb/C mice femurs was cultured in a 1:1 mixture of Razin media and conditioned media, produced by co-culturing splenocytes from C57B1/6J and C3H mice in the presence of Concanavalin A as described by Razin et al. in the Proc. Natl. Acad. Sci. USA 28: 2559-2561, 1981. After weekly passaging and at least 15 days in tissue culture, the resulting cells were 90% pure mast cells and 95% viable as assessed by Trypan blue exclusion. Cells exposed to ribavirin in culture were washed three times prior to use in experiments. Parallel cultures of cells grown in media alone were used as controls for pharmacologically manipulated mast cells. Cell growth was assessed by counting cells at particular time points and comparing actual numbers of ribavirin-treated cells to numbers of cells grown in media alone.

[7] = test system: pentylene tetrazol-induced seizures; experiment: Pentylene tetrazol-induced seizures; type: in vivo, rat
[8] = dogs 1-6 of the AICA riboside group
[9] = one hour after intravenous administration

NC(=O)c1ncn([C@@H]2O[C@H](CO)[C@@H](O)[C@H]2O)c1N [AICA riboside, 5-amino-4-imidazolecarboxamide riboside]
adenosine release from lymphoblasts ([1]; 48-hour pretreatment, 100-500 micromolar (FIG. 2)): enhances adenosine release
adenosine excreted ([1]; 48-hour pretreatment, 500 micromolar AICA riboside, about 1.4 without drug): about 2.3 nanomoles of adenosine/10^6 WI-L2 cells
adenosine release from lymphoblasts ([1]; 18 hours preincubation before 2-deoxyglucose exposure (FIG. 7)): enhanced adenosine release
adenosine release from lymphoblasts ([1]; three-hour preincubation and four-hour incubation during 2-deoxyglucose treatment (FIGS. 8, 9)): increased adenosine release
adenosine secreted by treated cells versus control cells ([2]; 50 μM AICA riboside, A23187 and 1.0 μM deoxycoformycin): at least twofold more adenosine than control cells
Concentration of Adenosine ([2]; ionophore 0 μg/ml): < 0.01 µM
Concentration of Adenosine ([2]; ionophore 10 μg/ml, control 0.329): 0.698 µM
Concentration of Adenosine ([3]; ionophore 0 μg/ml): < 0.01 µM
Concentration of Adenosine ([3]; ionophore 10 μg/ml, control 0.124): 0.513 µM
correction of the twofold lower adenosine secretion of HPRT-deficient cells ([3]; pretreatment): can be corrected by pretreatment
concentration [4]: 27.2 µM
regional myocardial blood flow to the ischemic myocardium versus saline (ischemic myocardium; 5 and 60 minutes of occlusion): significantly greater
flow to normal (non-ischemic) myocardium (ischemic myocardium; dog, in vivo): did not alter flow to normal myocardium
collateral blood flow versus saline (radiolabelled microspheres) (ischemic myocardium; dogs of Example IX): significantly greater
reduction of infarct size compared to saline-treated controls (myocardial infarct): 33%
VTAC, average (arrhythmias; average of six dogs, saline 18.2, p<0.01): 4.7 EPISODES/H
PVD, average (arrhythmias; average of six dogs, saline 112.2, p<0.01): 37.8 EPISODES/H
PVD, individual dogs (arrhythmias; [8]): 12 EPISODES/H and 10 EPISODES/H and 182 EPISODES/H and 4 EPISODES/H and 13 EPISODES/H and 6 EPISODES/H
VTAC, individual dogs (arrhythmias; [8]): 1 EPISODES/H and 0 EPISODES/H and 27 EPISODES/H
AICA riboside in plasma and CSF ([5]; all dosages used, oral 5 to 2×10 mg/kg/day and intravenous 20 mg/kg/day): could not be detected
AICA riboside in plasma [5, 9]: undetectable in plasma
AICA riboside triphosphate in the erythrocytes [5, 9]: had similarly accumulated in the erythrocytes
concentrations of AICA riboside triphosphate reached in erythrocytes ([5]; oral as well as intravenous administration): of the same magnitude as those of GTP
supernatant leukotriene C4 concentration ([6]; 100 μM for six days, A23187 challenge 20 minutes, control 51): 13 nanograms/10^6 cells
inhibition at 100 µM ([6]; Mus musculus, Mast cell, 100 μM pretreatment for six days, p<0.01, read-out: reduction of leukotriene C4 release): 75%
latency to seizure ([7]; 2000 mg/kg (total dose) intraperitoneal (FIG. 12)): dramatic prolongation
reduction of animals having seizures ([7]; 2000 mg/kg (total dose) intraperitoneal, 60 mg/kg pentylene tetrazol): 40%
